In ChEMBL document CHEMBL3526101, “Discovery and characterization of novel, potent, and selective cytochrome P450 2J2 inhibitors” (Drug Metab Dispos, 2013):

T1: Cytochrome P450 1A2 (Homo sapiens, UniProt P05177)
T1 sequence (P05177 whole entry): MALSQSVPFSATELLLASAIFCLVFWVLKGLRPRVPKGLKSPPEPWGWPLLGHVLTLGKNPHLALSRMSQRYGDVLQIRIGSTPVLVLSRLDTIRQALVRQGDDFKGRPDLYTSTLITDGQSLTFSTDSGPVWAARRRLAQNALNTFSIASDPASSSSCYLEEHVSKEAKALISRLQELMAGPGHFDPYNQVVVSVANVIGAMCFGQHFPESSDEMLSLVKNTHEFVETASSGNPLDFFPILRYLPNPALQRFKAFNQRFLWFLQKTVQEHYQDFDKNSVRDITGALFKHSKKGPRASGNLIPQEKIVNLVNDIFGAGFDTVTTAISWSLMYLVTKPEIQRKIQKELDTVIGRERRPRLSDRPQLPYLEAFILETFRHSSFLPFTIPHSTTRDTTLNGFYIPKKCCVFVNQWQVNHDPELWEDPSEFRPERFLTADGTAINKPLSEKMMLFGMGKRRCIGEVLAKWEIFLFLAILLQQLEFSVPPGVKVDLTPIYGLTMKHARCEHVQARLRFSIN

T2: Cytochrome P450 2J2 (Homo sapiens, UniProt P51589)
T2 sequence (P51589 whole entry): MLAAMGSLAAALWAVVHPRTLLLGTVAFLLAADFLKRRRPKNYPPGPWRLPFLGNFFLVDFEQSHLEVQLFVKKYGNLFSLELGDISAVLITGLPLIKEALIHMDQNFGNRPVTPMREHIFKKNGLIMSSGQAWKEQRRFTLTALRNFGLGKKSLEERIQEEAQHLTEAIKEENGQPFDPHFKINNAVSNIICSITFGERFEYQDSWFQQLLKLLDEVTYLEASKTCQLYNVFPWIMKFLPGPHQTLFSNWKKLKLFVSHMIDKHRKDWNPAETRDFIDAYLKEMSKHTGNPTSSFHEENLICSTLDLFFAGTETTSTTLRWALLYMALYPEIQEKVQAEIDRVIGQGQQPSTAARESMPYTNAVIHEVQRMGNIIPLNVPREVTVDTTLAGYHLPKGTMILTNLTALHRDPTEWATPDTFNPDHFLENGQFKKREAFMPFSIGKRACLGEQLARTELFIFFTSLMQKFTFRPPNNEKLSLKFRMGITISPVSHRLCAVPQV


Tests used:
Cytochrome P450 1A2 = biological target: T1, Cytochrome P450 1A2
Cytochrome P450 2C9 = Cytochrome P450 2C9 (Homo sapiens, UniProt P11712)
Cytochrome P450 2J2 [1] = biological target: T2, Cytochrome P450 2J2
Cytochrome P450 2D6 = Cytochrome P450 2D6 (Homo sapiens, UniProt P10635)
Cytochrome P450 2C19 = Cytochrome P450 2C19 (Homo sapiens, UniProt P33261)
[2] = Metabolic stability in human liver microsomes at 1 uM after 30 mins by LC-MS/MS method; assay type: ADME; details: read-out: Stability
[3] = Tmax in human; assay type: ADME, organism-based; details: in vivo
Cytochrome P450 2J2 [4] = biological target: T2, Cytochrome P450 2J2; experiment: Drug metabolism assessed as human recombinant CYP2J2-mediated intrinsic clearance assessed per pmol protein after 30 mins; assay type: ADME; details: recombinant enzyme, 0.5 h
Cytochrome P450 3A4 = Cytochrome P450 3A4 (Homo sapiens, UniProt P08684)
Description: Inhibition of CYP3A4 in human liver microsomes using testosterone substrate by LC-MS/MS method

[5] = substrate: COc1ccc(CCN2CCC(Nc3nc4ccccc4n3Cc3ccc(F)cc3)CC2)cc1; experiment: Activity of human recombinant CYP2J2 assessed as compound O-demethylation; assay type: ADME

Cytochrome P450 2C9, sequence (P11712 whole entry): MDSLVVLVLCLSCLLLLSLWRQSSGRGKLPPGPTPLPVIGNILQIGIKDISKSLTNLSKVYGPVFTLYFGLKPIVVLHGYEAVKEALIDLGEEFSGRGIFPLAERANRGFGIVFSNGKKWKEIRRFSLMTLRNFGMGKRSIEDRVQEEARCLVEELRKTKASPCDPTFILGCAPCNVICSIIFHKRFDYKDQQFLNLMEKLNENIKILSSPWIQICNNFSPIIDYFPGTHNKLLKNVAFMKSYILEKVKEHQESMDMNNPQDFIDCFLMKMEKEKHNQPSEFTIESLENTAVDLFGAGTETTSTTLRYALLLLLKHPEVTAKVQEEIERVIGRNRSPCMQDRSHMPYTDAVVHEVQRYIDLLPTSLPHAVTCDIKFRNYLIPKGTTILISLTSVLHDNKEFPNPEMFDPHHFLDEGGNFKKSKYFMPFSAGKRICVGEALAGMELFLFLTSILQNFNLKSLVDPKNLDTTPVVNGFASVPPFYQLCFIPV
Cytochrome P450 2C19, sequence (P33261 whole entry): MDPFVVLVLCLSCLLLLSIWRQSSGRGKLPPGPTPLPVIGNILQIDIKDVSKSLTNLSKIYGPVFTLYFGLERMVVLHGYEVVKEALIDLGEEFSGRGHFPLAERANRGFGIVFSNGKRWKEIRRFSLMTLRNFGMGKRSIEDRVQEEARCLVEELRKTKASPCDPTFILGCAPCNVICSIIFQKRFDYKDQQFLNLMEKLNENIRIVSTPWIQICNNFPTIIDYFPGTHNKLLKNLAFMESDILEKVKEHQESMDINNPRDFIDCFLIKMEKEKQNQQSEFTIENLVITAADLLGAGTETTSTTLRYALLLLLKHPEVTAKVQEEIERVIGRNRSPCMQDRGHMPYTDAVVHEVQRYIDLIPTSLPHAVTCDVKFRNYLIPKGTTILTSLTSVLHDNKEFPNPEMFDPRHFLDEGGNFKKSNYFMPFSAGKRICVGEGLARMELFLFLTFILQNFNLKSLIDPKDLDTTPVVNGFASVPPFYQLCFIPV
Cytochrome P450 2D6, sequence (P10635 whole entry): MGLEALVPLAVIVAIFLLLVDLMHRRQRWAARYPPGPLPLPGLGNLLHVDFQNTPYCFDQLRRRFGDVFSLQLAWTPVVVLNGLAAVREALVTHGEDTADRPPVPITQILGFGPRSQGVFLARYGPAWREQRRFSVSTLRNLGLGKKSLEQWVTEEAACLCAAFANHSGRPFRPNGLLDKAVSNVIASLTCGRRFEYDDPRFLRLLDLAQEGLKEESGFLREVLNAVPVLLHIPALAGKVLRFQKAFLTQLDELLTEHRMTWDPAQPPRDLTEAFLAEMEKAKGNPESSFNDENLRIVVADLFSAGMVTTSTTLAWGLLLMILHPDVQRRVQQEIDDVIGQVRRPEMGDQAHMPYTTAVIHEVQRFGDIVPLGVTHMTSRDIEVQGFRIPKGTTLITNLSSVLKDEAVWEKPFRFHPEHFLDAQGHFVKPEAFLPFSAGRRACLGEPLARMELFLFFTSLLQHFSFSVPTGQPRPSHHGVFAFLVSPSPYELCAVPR
Cytochrome P450 3A4, sequence (P08684 whole entry): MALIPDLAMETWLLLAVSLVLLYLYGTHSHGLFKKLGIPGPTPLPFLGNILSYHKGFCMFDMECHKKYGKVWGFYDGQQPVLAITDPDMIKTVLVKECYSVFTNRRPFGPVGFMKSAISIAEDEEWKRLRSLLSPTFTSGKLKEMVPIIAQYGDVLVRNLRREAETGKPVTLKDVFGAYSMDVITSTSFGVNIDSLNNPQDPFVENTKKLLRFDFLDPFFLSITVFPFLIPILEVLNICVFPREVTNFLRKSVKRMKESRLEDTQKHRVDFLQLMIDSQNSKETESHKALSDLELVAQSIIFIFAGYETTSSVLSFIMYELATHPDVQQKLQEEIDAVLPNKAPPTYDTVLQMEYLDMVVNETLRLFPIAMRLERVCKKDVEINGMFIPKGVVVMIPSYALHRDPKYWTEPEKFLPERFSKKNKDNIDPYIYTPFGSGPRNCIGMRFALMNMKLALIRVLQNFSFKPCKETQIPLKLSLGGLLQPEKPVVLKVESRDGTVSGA

| Molecule | IC50 (Cytochrome P450 1A2) [µM] | IC50 (Cytochrome P450 2J2 [1]) [µM] | also measured |
| --- | --- | --- | --- |
| CCn1cc(C(=O)O)c(=O)c2cc(F)c(N3CCNCC3)cc21 [NORFLOXACIN] | > 50 | – | IC50 (Cytochrome P450 2C9): > 50 µM |
| C[C@@H]1C[C@H]2[C@@H]3CCC4=CC(=O)C=C[C@]4(C)[C@@]3(F)[C@@H](O)C[C@]2(C)[C@@]1(O)C(=O)CO [DEXAMETHASONE] | – | > 50 | – |
| CC(=O)Nc1ccc(O)cc1 [ACETAMINOPHEN] | – | > 50 | – |
| CCCc1nc(C(C)(C)O)c(C(=O)O)n1Cc1ccc(-c2ccccc2-c2nnn[nH]2)cc1 [OLMESARTAN] | – | > 50 | – |
| CC(C)COCC(CN(Cc1ccccc1)c1ccccc1)N1CCCC1 (stereo unspecified) [BEPRIDIL] | > 50 | 11.5 | IC50 (Cytochrome P450 2D6): > 50 µM |
| COCC(=O)O[C@]1(CCN(C)CCCc2nc3ccccc3[nH]2)CCc2cc(F)ccc2[C@@H]1C(C)C [MIBEFRADIL] | > 50 | 2.14 | IC50 (Cytochrome P450 2C19): 1.32 µM; IC50 (Cytochrome P450 2D6): 0.84 µM; IC50 (Cytochrome P450 2C9): 28.4 µM |
| CN[C@H]1CC[C@@H](c2ccc(Cl)c(Cl)c2)c2ccccc21 [SERTRALINE] | 29.7 | 18.5 | IC50 (Cytochrome P450 2C19): 22.5 µM; IC50 (Cytochrome P450 2D6): 2.88 µM; IC50 (Cytochrome P450 2C9): > 50 µM |
| Nc1ccc(S(=O)(=O)Nc2ccnn2-c2ccccc2)cc1 [SULFAPHENAZOLE] | – | > 50 | – |
| Fc1ccc(C(c2ccc(F)cc2)N2CCN(C/C=C/c3ccccc3)CC2)cc1 [FLUNARIZINE] | > 50 | – | remaining at 0.5 h, 1 µM [2]: 83.8%; Tmax [3]: 4 h; IC50 (Cytochrome P450 2C19): > 50 µM; IC50 (Cytochrome P450 2C9): > 50 µM |
| COc1ccc2[nH]c([S+]([O-])Cc3ncc(C)c(OC)c3C)nc2c1 (stereo unspecified) [OMEPRAZOLE] | – | > 50 | – |
| COc1ccc(CCN2CCC(Nc3nc4ccccc4n3Cc3ccc(F)cc3)CC2)cc1 [ASTEMIZOLE] | – | – | CL (Cytochrome P450 2J2 [4]): 3.05 µL/min |
| CCc1oc2ccccc2c1C(=O)c1cc(Br)c(O)c(Br)c1 [BENZBROMARONE] | 33.1 | 4.26 | IC50 (Cytochrome P450 2D6): > 50 µM |
| Cc1cccc(Nc2ccccc2C(=O)O)c1C [MEFENAMIC ACID] | – | > 50 | – |
| COCCc1ccc(OCC(O)CNC(C)C)cc1 (stereo unspecified) [METOPROLOL] | > 50 | – | IC50 (Cytochrome P450 3A4): > 50 µM |
| NC(=O)N1c2ccccc2C=Cc2ccccc21 [CARBAMAZEPINE] | – | > 50 | – |
| CCN(CC)Cc1cc(Nc2ccnc3cc(Cl)ccc23)ccc1O [AMODIAQUINE] | – | – | IC50 (Cytochrome P450 3A4): > 50 µM |
| C=CCc1ccccc1OCC(O)CNC(C)C (stereo unspecified) [ALPRENOLOL] | – | > 50 | – |
| COc1ccc(CCN(C)CCCC(C#N)(c2ccc(OC)c(OC)c2)C(C)C)cc1OC (stereo unspecified) | > 50 | – | – |
| Cc1c(OCC(F)(F)F)ccnc1C[S+]([O-])c1nc2ccccc2[nH]1 (stereo unspecified) [LANSOPRAZOLE] | – | > 50 | – |
| CN1CCC[C@@H]1Cc1c[nH]c2ccc(CCS(=O)(=O)c3ccccc3)cc12 | – | > 50 | – |
| C[C@]12C=CC(=O)C=C1CC[C@@H]1[C@@H]2[C@@H](O)C[C@@]2(C)[C@H]1CC[C@]2(O)C(=O)CO [PREDNISOLONE] | – | > 50 | – |
| CC[C@H]1OC(=O)[C@H](C)[C@@H](O[C@H]2C[C@@](C)(OC)[C@@H](O)[C@H](C)O2)[C@H](C)[C@@H](O[C@@H]2O[C@H](C)C[C@H](N(C)C)[C@H]2O)[C@](C)(O)C[C@@H](C)C(=O)[C@H](C)[C@@H](O)[C@]1(C)O [ERYTHROMYCIN] | – | > 50 | – |
| CO/N=C(\C(=O)N[C@@H]1C(=O)N2C(C(=O)O)=C(CSc3nc(=O)c(=O)[nH]n3C)CS[C@H]12)c1csc(N)n1 [CEFTRIAXONE] | – | 27.4 | – |
| COc1ccc2c(c1)[C@]13CCCC[C@@H]1[C@H](C2)N(C)CC3 [DEXTROMETHORPHAN] | – | > 50 | – |
| CC1(C)S[C@@H]2[C@H](NC(=O)[C@H](N)c3ccc(O)cc3)C(=O)N2[C@H]1C(=O)O [AMOXICILLIN] | – | > 50 | – |
| C[C@]12C=CC(=O)C=C1CC[C@H]1[C@@H]3C[C@@H](O)[C@](O)(C(=O)CO)[C@@]3(C)C[C@H](O)[C@@]12F [TRIAMCINOLONE] | > 50 | 9.47 | IC50 (Cytochrome P450 2D6): > 50 µM; IC50 (Cytochrome P450 2C9): > 50 µM |
| CN(C)CCCN1c2ccccc2CCc2ccccc21 [IMIPRAMINE] | – | > 50 | – |
| CCCc1nc2c(C)cc(-c3nc4ccccc4n3C)cc2n1Cc1ccc(-c2ccccc2C(=O)O)cc1 | > 50 | – | remaining at 0.5 h, 1 µM [2]: 97.7%; IC50 (Cytochrome P450 2C19): > 50 µM; IC50 (Cytochrome P450 2D6): > 50 µM; IC50 (Cytochrome P450 2C9): 4.78 µM |
| CN1C(C(=O)Nc2ccccn2)=C(O)c2ccccc2S1(=O)=O [PIROXICAM] | – | > 50 | – |
| Cytochrome P450 2J2 (Homo sapiens) (protein) MLAAMGSLAAALWAVVHPRTLLLGTVAFLLAADFLKRRRPKNYPPGPWRLPFLGNFFLVDFEQSHLEVQLFVKKYGNLFSLELGDISAVLITGLPLIKEALIHMDQNFGNRPVTPMREHIFKKNGLIMSSGQAWKEQRRFTLTALRNFGLGKKSLEERIQEEAQHLTEAIKEENGQPFDPHFKINNAVSNIICSITFGERFEYQDSWFQQLLKLLDEVTYLEASKTCQLYNVFPWIMKFLPGPHQTLFSNWKKLKLFVSHMIDKHRKDWNPAETRDFIDAYLKEMSKHTGNPTSSFHEENLICSTLDLFFAGTETTSTTLRWALLYMALYPEIQEKVQAEIDRVIGQGQQPSTAARESMPYTNAVIHEVQRMGNIIPLNVPREVTVDTTLAGYHLPKGTMILTNLTALHRDPTEWATPDTFNPDHFLENGQFKKREAFMPFSIGKRACLGEQLARTELFIFFTSLMQKFTFRPPNNEKLSLKFRMGITISPVSHRLCAVPQV | – | – | Km [5]: 0.09 µM; Vmax [5]: 0.000339 µmol/min |
